Tested on: KRAS PDC multicell spheroid viability
Assay: Anticancer human tumor 521955-158-R6-J3-PDC patient-derived pancreatic carcinoma cell line growth inhibition [KRAS2]
Settings: for IC50: curve of first compound; for viability, T/C: stronger effect = lower value
How it was run: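 KRAS-mutant tumor cells were grown as spheroids with HUVEC endothelial cells and human MSCs as stroma. Targeted agents were tested alone and with KRAS pathway inhibitors. Doses started at or near clinical Cmax, or 10 microM, descending half-log.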

[1] = second compound 0.1 µM, first compound 0.0316 µM
[2] = second compound 0.1 µM, first compound 0.1 µM
[3] = second compound 0.1 µM, first compound 0.316 µM
[4] = second compound 0.1 µM, first compound 1 µM
[5] = second compound 0.1 µM, first compound 3.16 µM
[6] = second compound 0.1 µM, first compound 10 µM
[7] = second compound 0.316 µM, first compound 0.0316 µM
[8] = second compound 0.316 µM, first compound 0.1 µM
[9] = second compound 0.316 µM, first compound 0.316 µM
[10] = second compound 0.316 µM, first compound 1 µM
[11] = second compound 0.316 µM, first compound 3.16 µM
[12] = second compound 0.316 µM, first compound 10 µM
[13] = second compound 1 µM, first compound 0.0316 µM
[14] = second compound 1 µM, first compound 0.1 µM
[15] = second compound 1 µM, first compound 0.316 µM
[16] = second compound 1 µM, first compound 1 µM
[17] = second compound 1 µM, first compound 3.16 µM
[18] = second compound 1 µM, first compound 10 µM
[19] = second compound 3.16 µM, first compound 0.0316 µM
[20] = second compound 3.16 µM, first compound 0.1 µM
[21] = second compound 3.16 µM, first compound 0.316 µM
[22] = second compound 3.16 µM, first compound 1 µM
[23] = second compound 3.16 µM, first compound 3.16 µM
[24] = second compound 3.16 µM, first compound 10 µM
[25] = second compound 10 µM, first compound 0.0316 µM
[26] = second compound 10 µM, first compound 0.1 µM
[27] = second compound 10 µM, first compound 0.316 µM
[28] = second compound 10 µM, first compound 1 µM
[29] = second compound 10 µM, first compound 3.16 µM
[30] = second compound 10 µM, first compound 10 µM
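Also: drug exposure lasted seven days.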
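For viability, T/C in this document: 100% = DMSO vehicle wells and lower means fewer viable cells.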

Row | Structure (SMILES) | IC50 (second compound 0.1 µM) [µM] | IC50 (second compound 0.316 µM) [µM] | IC50 (second compound 1 µM) [µM] | IC50 (second compound 3.16 µM) [µM] | IC50 (second compound 10 µM) [µM] | viability, T/C [1] [%] | viability, T/C [2] [%] | viability, T/C [3] [%] | viability, T/C [4] [%] | viability, T/C [5] [%] | viability, T/C [6] [%] | viability, T/C [7] [%] | viability, T/C [8] [%] | viability, T/C [9] [%] | viability, T/C [10] [%] | viability, T/C [11] [%] | viability, T/C [12] [%] | viability, T/C [13] [%] | viability, T/C [14] [%] | viability, T/C [15] [%] | also measured
1 | COC(=O)c1ccc2c(C(=Nc3ccc(N(C)C(=O)CN4CCN(C)CC4)cc3)c3ccccc3)c(O)[nH]c2c1 + CNCc1ccccc1-c1csc(C(C)Nc2nc(C)nc3cc(OC)c(OC)cc23)c1 | 3.03 | 1.84 | 3.28 | < 0.0316 | < 0.0316 | 91 | 105 | 120 | 134 | 47.5 | 0.53 | 83.7 | 93.3 | 107 | 120 | 5.04 | 0.18 | 84.1 | 90.1 | 110 | viability, T/C [16]: 110%; viability, T/C [17]: 51.7%; viability, T/C [18]: 1.19%; viability, T/C [19]: 2.05%; viability, T/C [20]: 1.85%; viability, T/C [21]: 2.08%; viability, T/C [22]: 1.25%; viability, T/C [23]: 0.14%; viability, T/C [24]: 1.34%; viability, T/C [25]: 0.42%; viability, T/C [26]: 1.27%; viability, T/C [27]: 0.48%; viability, T/C [28]: 0.14%; viability, T/C [29]: 2.49%; viability, T/C [30]: 0.86%
2 | COc1cc(Nc2ncc3c(n2)-c2ccc(Cl)cc2C(c2c(F)cccc2OC)=NC3)ccc1C(=O)O + CNCc1ccccc1-c1csc(C(C)Nc2nc(C)nc3cc(OC)c(OC)cc23)c1 | > 10 | > 10 | > 10 | < 0.0316 | < 0.0316 | 95.5 | 89.9 | 94.6 | 101 | 113 | 89.4 | 104 | 84.6 | 90.9 | 88.7 | 90.7 | 104 | 93.6 | 73.3 | 86.7 | viability, T/C [16]: 78.2%; viability, T/C [17]: 87.3%; viability, T/C [18]: 88.6%; viability, T/C [19]: 1.45%; viability, T/C [20]: 0.8%; viability, T/C [21]: 0.53%; viability, T/C [22]: 1.47%; viability, T/C [23]: 2.38%; viability, T/C [24]: 2.86%; viability, T/C [25]: 0.82%; viability, T/C [26]: 1.21%; viability, T/C [27]: 0.68%; viability, T/C [28]: 0.35%; viability, T/C [29]: 0.3%; viability, T/C [30]: 0.59%
3 | O=C(c1cc(Cc2n[nH]c(=O)c3ccccc23)ccc1F)N1CCN(C(=O)C2CC2)CC1 + CNCc1ccccc1-c1csc(C(C)Nc2nc(C)nc3cc(OC)c(OC)cc23)c1 | > 10 | > 10 | > 10 | < 0.0316 | < 0.0316 | 72.8 | 79.4 | 75.4 | 71.6 | 66.7 | 71.9 | 65.6 | 65.3 | 64.6 | 62 | 56.5 | 66.5 | 61.3 | 68.7 | 62.8 | viability, T/C [16]: 55%; viability, T/C [17]: 64.3%; viability, T/C [18]: 62.9%; viability, T/C [19]: 1.32%; viability, T/C [20]: 3.56%; viability, T/C [21]: 0.56%; viability, T/C [22]: 0.32%; viability, T/C [23]: 3.02%; viability, T/C [24]: 0.56%; viability, T/C [25]: 0.13%; viability, T/C [26]: 0.47%; viability, T/C [27]: 1.37%; viability, T/C [28]: 0.65%; viability, T/C [29]: 0.77%; viability, T/C [30]: 0.19%

Source: PubChem BioAssay AID1963864 (Molecular Pharmacology Branch, DTP, NCI, 2024)
